Like-named read-outs stand apart in the source and are kept apart here.
Legend:
[1] = tested on: prostate cancer cell line LNCaP; test: LNCaP cell culture, growth and death (FIG. 5, FIG. 10); format: cell-based; conditions: for number of cancer cells / anticancer effect: 10 mM, 7 days (FIG. 10)
Procedure: A dose dependent decrease in cell density was clearly detected with 2-deoxyribitol treatment, but not with ribitol treatment.
Less than 50% of cells and 10% of cells were detected with the treatment of 10 mM and 50 mM 2-deoxyribitol, respectively.

[2] = tested on: MCF7 cells; test: Mammosphere formation (FIG. 4); format: cell-based; conditions: MCF7, Vitamin C 50 μM 5 days, then normal medium 6 days
Procedure: Cells were also treated with Vitamin C (VitC) at a concentration of 50 μM for 5 days (5d) and then returned to normal medium (NM) for 6 days (d6), without (lower left panel) or with 2-deoxyribitol (Drug, lower right panel). The formation of cancer mammospheres, considered to be cancer stem cell-rich population, can be seen in culture without Drug treatment, and with Vitamin C treatment only. Drug treatment greatly reduces to eliminates the formation of cancer mammospheres.
To examine mammosphere formation, MCF7 cells were grown for 11 days with or without 2-deoxyribitol (drug) treatment (FIG. 4, top panels). In addition, MCF7 cells were treated with Vitamin C at the concentration of 50 μM for 5 days and then returned to normal medium (“NM”) for 6 days (FIG. 4, lower panels).

[3] = tested on: alpha dystroglycan (α-DG); conditions: cited from earlier work
[4] = tested on: breast cancer cell line MCF7; test: MCF7 cell culture, growth and death (FIG. 2); format: cell-based; conditions: MCF7, 0.4-50 mM, 3 day treatment
Procedure: From left-top-to-bottom: Control, 0.4 mM Drug, 2 mM rib, and 10 mM Drug; From right-top-to-bottom: 0.4 mM rib; 2 mM Drug; 10 mM rib; and 50 mM Drug.
However, this effect was not related to the enhanced expression of glycosylation of α-DG.

[5] = Pei Lu et al., (2020) Sci Rep 10(1):4935

| SMILES | number of cancer cells / anticancer effect [1] | glycosylation of α-DG [3, 5] | further results |
| --- | --- | --- | --- |
| O=CC[C@H](O)[C@H](O)CO [2-deoxyribose, reference compound] | did not show the same anticancer effects |  |  |
| O=C1O[C@H]([C@@H](O)CO)C(O)=C1O [Vitamin C, reference compound] |  |  | number of mammospheres, Vitamin C then normal medium [2]: greatly increased the number of well-defined mammospheres |
| OC[C@@H](O)[C@@H](O)[C@@H](O)CO [ribitol, reference compound] | did not show the same anticancer effects |  | glycosylation of α-DG ([3]; some cancer cells including MCF7, background statement): enhances glycosylation of α-DG; effect on cell growth, death and cell density ([1]; 2-50 mM, 4 days): slightly increased; effect on cell growth, death and morphology [4]: no clear effect on cell growth and morphology |
| O=P(O)(O)OC[C@@H](O)[C@@H](O)[C@@H](O)CO [ribitol-5-phosphate] |  | showed an effect of enhancing glycosylation of α-DG |  |
| O=C[C@H](O)[C@H](O)[C@H](O)CO [ribose] |  | showed an effect of enhancing glycosylation of α-DG |  |
| O=C(CO)[C@H](O)[C@H](O)CO [ribulose] |  | showed an effect of enhancing glycosylation of α-DG |  |

Reference: patent publication US12257214B2, “Compositions and methods comprising deoxy-pentitols” (The Charlotte Mecklenburg Hospital Authority, priority 2021, dated 2025)
